Experimental data: paper PMC7801264, “Farnesyl Transferase Inhibitor Lonafarnib Enhances α7nAChR Expression Through Inhibiting DNA Methylation of CHRNA7 and Increases α7nAChR Membrane Trafficking” (Frontiers in Pharmacology, 2020)

Molecular target: T1, α7 nicotinic acetylcholine receptor (α7nAChR) (Mus musculus, UniProt P49582)
T1 construct: gene Chrna7; native receptor in hippocampal CA1 pyramidal cells (brain slices)
Assay: whole cell patch-clamp of ACh-evoked inward current in mouse hippocampal slices, dose-response

T1 sequence (P49582 23-502): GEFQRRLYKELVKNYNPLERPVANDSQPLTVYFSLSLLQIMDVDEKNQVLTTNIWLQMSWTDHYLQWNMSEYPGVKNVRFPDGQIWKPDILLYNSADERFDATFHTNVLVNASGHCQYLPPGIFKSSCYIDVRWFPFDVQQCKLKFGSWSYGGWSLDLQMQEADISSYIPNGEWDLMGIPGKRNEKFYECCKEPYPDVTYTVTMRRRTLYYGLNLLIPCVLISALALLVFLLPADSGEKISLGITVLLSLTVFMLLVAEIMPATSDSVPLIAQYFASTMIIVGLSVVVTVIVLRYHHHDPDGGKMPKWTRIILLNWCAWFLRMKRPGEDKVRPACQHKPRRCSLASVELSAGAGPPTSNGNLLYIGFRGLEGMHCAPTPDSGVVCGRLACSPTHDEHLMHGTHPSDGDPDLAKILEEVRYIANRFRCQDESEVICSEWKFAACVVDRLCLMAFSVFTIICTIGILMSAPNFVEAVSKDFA

For CC(=O)OCC[N+](C)(C)C [acetylcholine], the EC50 was 431 µM.
